This passage reports EC50 results from patent US11603380B2 (Centre national de la recherche scientifique, priority 2018, dated 2023).

The test system of the assay is varicella-zoster virus (VZV) TK− (07/1). The experiment in a line: microbe, parasite or virus in culture. It is filed as cell-based. The note with it: read-out: EC50 VZV TK− (07/1).

Some results are limits rather than exact numbers.

For “[(E/Z)-2-[[2-[bis(tert-butoxycarbonyl)amino]-6-methoxy-pyrimidin-4-yl]oxymethyl]-4-[3-hexadecoxypropoxy(isopropoxycarbonyloxymethoxy)phosphoryl]but-2′-enyl]acetate [Compound (7)]”, the EC50 was greater than 20 µM.
The result for `CCCCCCCCCCCCCCCCOCCCOP(=O)(C/C=C/COc1cc(N)nc(N)n1)OCOC(=O)OC(C)C` (stereo not drawn) [Compound (2), [[(E)-4-(2,6-diaminopyrimidin-4-yl)oxybut-2′-enyl]-(3-hexadecoxypropoxy)phosphoryl]oxymethyl isopropyl carbonate] reads 0.24 µM.
Consider `CCCCCCCCCCCCCCCCOCCCOP(=O)(CC=C(COC(C)=O)COc1cc(Cl)nc(N)n1)OCOC(=O)OC(C)C` (mixture of isomers) [Compound (8), [(E/Z)-2′-[(2-amino-6-chloro-pyrimidin-4-yl)oxymethyl]-4-[3-hexadecoxypropoxy(isopropoxycarbonyloxymethoxy)phosphoryl]but-2′-enyl]acetate], for which the EC50 was greater than 20 µM.
